This is an account of results in ChEMBL document CHEMBL5291721, “A preclinical secondary pharmacology resource illuminates target-adverse drug reaction associations of marketed drugs” (Nat Commun, 2023).

Bounds are passed on as bounds.

Test [1] addresses T1, Alpha-2C adrenergic receptor (Homo sapiens, UniProt P18825).
T1 sequence (P18825 whole entry): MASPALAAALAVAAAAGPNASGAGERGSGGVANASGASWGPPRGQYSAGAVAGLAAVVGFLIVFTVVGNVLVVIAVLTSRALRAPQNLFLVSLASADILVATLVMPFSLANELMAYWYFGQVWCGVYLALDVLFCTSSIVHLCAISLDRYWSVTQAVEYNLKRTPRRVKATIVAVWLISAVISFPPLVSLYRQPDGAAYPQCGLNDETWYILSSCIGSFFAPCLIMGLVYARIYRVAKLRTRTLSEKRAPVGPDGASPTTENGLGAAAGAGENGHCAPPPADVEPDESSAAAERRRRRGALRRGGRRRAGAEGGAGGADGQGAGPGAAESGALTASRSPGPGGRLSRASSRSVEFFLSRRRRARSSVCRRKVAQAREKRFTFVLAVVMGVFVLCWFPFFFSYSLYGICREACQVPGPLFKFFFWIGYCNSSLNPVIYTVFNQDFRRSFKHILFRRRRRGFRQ
Type of test: functional.

The target of test [2] is T2, Type-1 angiotensin II receptor (Homo sapiens, UniProt P30556).
T2 sequence (P30556 whole entry): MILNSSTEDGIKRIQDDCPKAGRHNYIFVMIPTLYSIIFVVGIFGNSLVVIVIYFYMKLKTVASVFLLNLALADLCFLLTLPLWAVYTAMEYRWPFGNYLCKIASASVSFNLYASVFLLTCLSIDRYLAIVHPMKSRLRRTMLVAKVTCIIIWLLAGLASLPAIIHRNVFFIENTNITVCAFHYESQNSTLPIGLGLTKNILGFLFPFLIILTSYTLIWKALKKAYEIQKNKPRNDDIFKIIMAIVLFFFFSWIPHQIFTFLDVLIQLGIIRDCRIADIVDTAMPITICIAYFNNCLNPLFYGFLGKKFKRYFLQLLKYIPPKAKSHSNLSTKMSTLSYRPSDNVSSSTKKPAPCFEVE

A further test addresses Vasopressin V1a receptor (Homo sapiens, UniProt P37288).
In test [3] the target is T3, Muscarinic acetylcholine receptor M1 (Homo sapiens, UniProt P11229).
T3 sequence (P11229 whole entry): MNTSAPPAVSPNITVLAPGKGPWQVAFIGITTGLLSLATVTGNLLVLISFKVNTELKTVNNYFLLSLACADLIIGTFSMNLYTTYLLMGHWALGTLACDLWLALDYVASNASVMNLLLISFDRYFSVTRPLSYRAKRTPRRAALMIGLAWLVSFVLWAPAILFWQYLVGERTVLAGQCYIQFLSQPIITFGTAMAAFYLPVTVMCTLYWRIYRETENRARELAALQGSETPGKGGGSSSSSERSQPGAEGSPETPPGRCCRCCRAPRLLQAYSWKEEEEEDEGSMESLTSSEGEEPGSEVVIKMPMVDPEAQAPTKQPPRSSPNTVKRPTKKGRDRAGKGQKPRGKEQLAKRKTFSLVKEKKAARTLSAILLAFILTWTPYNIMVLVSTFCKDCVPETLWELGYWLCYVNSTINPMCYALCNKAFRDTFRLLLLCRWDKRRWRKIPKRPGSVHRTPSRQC
The format is functional.

In another test the target is D(1A) dopamine receptor (Homo sapiens, UniProt P21728). Type of test: functional, cell-based.
A further test concerns the target T4, Estrogen receptor (Homo sapiens, UniProt P03372).
T4 sequence (P03372 whole entry): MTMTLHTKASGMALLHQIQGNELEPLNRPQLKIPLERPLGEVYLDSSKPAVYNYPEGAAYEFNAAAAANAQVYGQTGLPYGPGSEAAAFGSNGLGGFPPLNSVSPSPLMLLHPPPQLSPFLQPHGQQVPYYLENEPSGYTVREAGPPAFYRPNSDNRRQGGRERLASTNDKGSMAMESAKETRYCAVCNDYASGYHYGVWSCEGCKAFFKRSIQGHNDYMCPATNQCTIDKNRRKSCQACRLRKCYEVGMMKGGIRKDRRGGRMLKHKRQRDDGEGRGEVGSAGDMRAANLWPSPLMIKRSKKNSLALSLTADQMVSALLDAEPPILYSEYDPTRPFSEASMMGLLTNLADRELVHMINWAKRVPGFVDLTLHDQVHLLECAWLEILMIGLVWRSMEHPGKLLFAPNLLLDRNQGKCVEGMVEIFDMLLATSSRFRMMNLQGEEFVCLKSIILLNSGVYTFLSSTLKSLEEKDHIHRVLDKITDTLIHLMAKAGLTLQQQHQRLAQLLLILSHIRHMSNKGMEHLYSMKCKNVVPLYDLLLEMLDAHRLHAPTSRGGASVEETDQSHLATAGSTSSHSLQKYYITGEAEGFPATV

In test [4] the target is 5-hydroxytryptamine receptor 2B (Homo sapiens, UniProt P41595). The format is functional, cell-based.
Test [5] deals with Voltage-gated inwardly rectifying potassium channel KCNH2 (Homo sapiens, UniProt Q12809). The format is functional. As to conditions: read-out: AC50.
In test [6] the target is 3',5'-cyclic-AMP phosphodiesterase 4D (Homo sapiens, UniProt Q08499). Type of test: functional.
Test [7] concerns the target T5, Equilibrative nucleoside transporter 1 (Homo sapiens, UniProt Q99808).
T5 sequence (Q99808 whole entry): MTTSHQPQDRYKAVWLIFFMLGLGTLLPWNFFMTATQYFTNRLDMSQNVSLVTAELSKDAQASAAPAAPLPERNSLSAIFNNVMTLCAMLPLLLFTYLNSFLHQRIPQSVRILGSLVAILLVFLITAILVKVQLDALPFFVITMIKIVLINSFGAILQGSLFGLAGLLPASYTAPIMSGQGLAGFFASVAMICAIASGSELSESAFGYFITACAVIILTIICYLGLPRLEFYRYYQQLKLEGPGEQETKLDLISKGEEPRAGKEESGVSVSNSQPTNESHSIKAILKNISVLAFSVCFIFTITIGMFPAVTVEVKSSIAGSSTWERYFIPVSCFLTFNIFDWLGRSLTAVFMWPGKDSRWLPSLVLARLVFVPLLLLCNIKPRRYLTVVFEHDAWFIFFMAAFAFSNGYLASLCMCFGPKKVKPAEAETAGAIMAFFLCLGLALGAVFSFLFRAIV

In test [8] the target is Sodium-dependent dopamine transporter (Homo sapiens, UniProt Q01959).
In another test the target is Histamine H3 receptor (Homo sapiens, UniProt Q9Y5N1).
Test [9] deals with Gamma-aminobutyric acid receptor subunit alpha-1 (Rattus norvegicus, UniProt P62813).
Further: assay procedure not described here.

5-hydroxytryptamine receptor 2B, sequence (P41595 whole entry): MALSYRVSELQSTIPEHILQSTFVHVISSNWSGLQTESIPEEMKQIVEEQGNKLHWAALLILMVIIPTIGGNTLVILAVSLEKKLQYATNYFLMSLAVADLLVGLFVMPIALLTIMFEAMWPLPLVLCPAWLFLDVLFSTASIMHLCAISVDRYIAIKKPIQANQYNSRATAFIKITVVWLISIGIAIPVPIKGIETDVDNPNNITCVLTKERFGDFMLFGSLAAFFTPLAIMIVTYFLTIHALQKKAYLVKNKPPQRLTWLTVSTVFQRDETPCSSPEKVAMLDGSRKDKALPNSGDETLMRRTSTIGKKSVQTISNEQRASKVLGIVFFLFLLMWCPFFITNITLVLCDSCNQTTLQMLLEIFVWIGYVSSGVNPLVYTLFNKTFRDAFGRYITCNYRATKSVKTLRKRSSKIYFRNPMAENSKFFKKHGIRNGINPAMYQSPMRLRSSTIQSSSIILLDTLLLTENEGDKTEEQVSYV
D(1A) dopamine receptor, sequence (P21728 whole entry): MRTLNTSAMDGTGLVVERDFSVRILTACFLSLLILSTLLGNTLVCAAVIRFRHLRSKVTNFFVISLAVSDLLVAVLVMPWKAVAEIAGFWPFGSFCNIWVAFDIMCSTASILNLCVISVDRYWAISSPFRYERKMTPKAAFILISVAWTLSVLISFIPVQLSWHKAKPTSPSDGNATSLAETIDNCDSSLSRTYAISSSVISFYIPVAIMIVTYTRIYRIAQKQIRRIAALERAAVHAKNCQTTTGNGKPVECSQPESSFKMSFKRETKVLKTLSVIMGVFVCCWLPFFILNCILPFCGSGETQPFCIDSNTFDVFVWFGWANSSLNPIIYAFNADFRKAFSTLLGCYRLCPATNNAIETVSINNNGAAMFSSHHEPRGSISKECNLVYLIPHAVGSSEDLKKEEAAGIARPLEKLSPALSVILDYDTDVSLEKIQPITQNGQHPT
3',5'-cyclic-AMP phosphodiesterase 4D, sequence (Q08499 whole entry): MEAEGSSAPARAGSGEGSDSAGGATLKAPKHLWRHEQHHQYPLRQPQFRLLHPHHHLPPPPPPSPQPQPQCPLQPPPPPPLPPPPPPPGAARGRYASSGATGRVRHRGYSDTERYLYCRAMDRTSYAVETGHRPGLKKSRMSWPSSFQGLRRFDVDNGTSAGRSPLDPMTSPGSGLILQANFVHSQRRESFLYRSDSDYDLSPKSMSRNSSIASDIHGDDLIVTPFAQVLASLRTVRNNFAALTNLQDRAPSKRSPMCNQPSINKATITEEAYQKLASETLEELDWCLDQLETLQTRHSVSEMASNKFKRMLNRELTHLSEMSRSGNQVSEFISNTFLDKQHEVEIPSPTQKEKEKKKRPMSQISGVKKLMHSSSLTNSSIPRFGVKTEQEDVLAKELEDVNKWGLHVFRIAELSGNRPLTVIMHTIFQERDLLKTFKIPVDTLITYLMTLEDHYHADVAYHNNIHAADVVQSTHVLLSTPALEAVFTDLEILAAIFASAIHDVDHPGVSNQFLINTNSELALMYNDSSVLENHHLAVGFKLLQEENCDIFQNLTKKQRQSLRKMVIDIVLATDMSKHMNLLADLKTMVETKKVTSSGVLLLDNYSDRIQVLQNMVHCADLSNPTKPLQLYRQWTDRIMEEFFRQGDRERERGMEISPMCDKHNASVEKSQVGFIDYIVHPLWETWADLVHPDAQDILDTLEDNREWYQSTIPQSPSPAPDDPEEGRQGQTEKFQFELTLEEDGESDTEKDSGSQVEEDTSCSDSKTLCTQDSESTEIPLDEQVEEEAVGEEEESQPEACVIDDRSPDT
Histamine H3 receptor, sequence (Q9Y5N1 whole entry): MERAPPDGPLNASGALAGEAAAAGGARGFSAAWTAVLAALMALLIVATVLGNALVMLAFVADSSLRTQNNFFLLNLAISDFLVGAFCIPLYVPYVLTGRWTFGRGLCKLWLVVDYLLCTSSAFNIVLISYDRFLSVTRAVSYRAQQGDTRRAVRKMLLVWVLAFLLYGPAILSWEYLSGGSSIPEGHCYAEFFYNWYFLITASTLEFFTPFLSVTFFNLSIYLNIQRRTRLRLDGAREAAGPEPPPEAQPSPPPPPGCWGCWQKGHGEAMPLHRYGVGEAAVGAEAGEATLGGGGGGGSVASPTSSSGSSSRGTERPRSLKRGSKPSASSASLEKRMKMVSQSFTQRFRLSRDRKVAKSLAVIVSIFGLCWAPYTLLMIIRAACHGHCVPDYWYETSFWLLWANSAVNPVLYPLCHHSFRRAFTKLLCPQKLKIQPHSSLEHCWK
Sodium-dependent dopamine transporter, sequence (Q01959 whole entry): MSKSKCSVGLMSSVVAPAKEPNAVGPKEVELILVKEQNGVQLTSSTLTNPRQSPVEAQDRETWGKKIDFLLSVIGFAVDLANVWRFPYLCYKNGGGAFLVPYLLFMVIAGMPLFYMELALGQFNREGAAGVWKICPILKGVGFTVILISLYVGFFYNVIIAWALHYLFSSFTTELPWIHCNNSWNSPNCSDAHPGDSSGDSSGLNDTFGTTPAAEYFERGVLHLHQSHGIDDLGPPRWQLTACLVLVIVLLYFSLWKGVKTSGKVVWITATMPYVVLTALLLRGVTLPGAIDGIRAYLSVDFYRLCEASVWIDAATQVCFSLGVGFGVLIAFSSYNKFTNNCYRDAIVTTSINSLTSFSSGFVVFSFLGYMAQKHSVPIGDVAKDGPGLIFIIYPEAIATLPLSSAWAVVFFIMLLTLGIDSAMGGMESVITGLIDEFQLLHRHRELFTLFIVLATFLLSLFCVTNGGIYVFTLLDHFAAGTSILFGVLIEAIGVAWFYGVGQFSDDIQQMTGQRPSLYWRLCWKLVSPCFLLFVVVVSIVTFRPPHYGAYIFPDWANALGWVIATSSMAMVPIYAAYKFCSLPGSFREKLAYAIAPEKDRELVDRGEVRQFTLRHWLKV
Gamma-aminobutyric acid receptor subunit alpha-1, sequence (P62813 whole entry): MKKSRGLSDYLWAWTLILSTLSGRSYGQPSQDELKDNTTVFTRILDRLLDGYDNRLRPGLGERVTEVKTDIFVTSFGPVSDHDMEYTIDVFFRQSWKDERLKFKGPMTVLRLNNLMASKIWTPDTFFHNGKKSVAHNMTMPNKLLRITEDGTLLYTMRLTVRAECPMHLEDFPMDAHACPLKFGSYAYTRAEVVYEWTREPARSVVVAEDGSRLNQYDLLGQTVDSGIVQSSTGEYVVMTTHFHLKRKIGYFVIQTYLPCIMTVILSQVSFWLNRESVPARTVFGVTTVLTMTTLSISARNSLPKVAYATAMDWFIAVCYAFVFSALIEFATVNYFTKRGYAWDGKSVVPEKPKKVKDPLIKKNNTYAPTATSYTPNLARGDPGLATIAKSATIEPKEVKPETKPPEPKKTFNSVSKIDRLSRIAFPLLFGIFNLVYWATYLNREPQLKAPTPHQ
Voltage-gated inwardly rectifying potassium channel KCNH2, sequence (Q12809 whole entry): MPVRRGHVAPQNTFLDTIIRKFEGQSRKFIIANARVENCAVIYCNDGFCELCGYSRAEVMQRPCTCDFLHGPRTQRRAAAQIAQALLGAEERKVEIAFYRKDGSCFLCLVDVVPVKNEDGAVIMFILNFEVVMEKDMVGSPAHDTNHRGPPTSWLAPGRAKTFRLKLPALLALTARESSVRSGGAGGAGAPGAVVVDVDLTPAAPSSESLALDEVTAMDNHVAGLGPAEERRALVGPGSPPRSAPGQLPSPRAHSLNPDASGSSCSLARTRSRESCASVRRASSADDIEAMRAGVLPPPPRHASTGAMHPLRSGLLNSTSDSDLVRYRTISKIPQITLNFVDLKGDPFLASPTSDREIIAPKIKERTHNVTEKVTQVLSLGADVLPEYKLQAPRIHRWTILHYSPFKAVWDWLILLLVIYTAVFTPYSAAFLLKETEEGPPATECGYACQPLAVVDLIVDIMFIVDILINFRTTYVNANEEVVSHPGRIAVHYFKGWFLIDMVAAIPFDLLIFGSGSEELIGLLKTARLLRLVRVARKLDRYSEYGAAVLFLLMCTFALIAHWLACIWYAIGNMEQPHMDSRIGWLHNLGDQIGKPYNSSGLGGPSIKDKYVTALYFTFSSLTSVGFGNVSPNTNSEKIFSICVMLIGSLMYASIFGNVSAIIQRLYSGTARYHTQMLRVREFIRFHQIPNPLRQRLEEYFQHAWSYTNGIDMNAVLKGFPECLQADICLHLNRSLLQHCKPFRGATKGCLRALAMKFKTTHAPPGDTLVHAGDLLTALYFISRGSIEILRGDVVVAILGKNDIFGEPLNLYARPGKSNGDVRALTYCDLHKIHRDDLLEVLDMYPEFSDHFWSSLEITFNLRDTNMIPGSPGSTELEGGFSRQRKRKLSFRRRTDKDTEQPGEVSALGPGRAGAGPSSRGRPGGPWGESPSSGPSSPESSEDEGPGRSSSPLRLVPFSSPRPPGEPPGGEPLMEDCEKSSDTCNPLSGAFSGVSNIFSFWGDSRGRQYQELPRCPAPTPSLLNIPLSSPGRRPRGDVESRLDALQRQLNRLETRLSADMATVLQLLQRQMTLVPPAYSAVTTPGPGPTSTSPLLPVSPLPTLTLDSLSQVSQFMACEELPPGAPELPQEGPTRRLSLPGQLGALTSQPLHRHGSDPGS
Vasopressin V1a receptor, sequence (P37288 whole entry): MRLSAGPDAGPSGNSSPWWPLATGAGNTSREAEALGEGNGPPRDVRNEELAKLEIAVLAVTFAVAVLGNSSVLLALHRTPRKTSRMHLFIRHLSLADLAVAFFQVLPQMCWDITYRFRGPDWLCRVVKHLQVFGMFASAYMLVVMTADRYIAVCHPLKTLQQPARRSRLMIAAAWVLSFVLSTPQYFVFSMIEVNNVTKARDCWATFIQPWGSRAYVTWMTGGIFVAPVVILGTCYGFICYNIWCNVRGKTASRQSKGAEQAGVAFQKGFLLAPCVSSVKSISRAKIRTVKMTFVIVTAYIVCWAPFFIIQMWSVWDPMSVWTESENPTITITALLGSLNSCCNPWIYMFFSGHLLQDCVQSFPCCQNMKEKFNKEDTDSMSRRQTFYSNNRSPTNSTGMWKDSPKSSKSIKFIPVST

By AC50 is commonly meant the concentration giving half of the maximal activity seen. As to `CCCCC1(CC)C(=O)NC(=O)NC1=O` [BUTETHAL], the half-maximal activity concentration (AC50) (in [1]; in test [2]; at Vasopressin V1a receptor; in test [3]; on D(1A) dopamine receptor; at Estrogen receptor) was > 30 µM each time. In addition, the AC50 (in [4]; in test [5]; in [6]; in test [7]; in test [8]; on Histamine H3 receptor) was > 30 µM throughout.

Regarding `C=CC1=C(C(=O)O)N2C(=O)[C@@H](NC(=O)/C(=N\OCC(=O)O)c3csc(N)n3)[C@H]2SC1` [CEFIXIME], the AC50 (in test [1]; in test [2]; at Vasopressin V1a receptor; in test [3]; on D(1A) dopamine receptor; on Estrogen receptor) was > 30 µM each time. The half-maximal activity concentration (AC50) (in test [4]; in [5]; in [6]; in [7]; in test [8]; at Histamine H3 receptor) was > 30 µM throughout.

In the case of `CCN(CC)CCOC(=O)c1ccc(N)cc1Cl` [CHLOROPROCAINE], the AC50 (in [1]; in test [2]; at Vasopressin V1a receptor; in [3]; on D(1A) dopamine receptor; on Estrogen receptor) was > 30 µM in each case. Further, the half-maximal activity concentration (AC50) is > 30 µM in test [4]; 11 µM in test [5]; > 30 µM in [6]; > 30 µM in test [7]; > 30 µM in [8]; 4 µM on Histamine H3 receptor.

Take `Clc1ccc(C(Cn2ccnc2)OCc2ccc(Sc3ccccc3)cc2)c(Cl)c1` (configuration not stated) [FENTICONAZOLE]: the concentration at half-maximal activity (AC50) in test [1] is > 30 µM; in test [2] it was 23 µM; at Vasopressin V1a receptor, > 30 µM; in [3] it was > 30 µM; on D(1A) dopamine receptor, > 30 µM; at Estrogen receptor, > 10 µM. The half-maximal activity concentration (AC50) was > 30 µM in test [4]; 1.45 µM in test [5]; 18 µM in [6]; > 30 µM in test [7]; > 30 µM on Histamine H3 receptor.

Regarding `O=C(O)c1ccccc1OP(=O)(O)O` [FOSFOSAL], the AC50 (in test [1]; in test [2]; on Vasopressin V1a receptor; in [3]; at D(1A) dopamine receptor; on Estrogen receptor) was > 30 µM each time. For the same compound, the concentration at half-maximal activity (AC50) (in test [4]; in test [5]; in test [6]; in test [7]; in [8]; at Histamine H3 receptor) was > 30 µM each time.

Consider `CC#CCn1c(N2CCC[C@@H](N)C2)nc2c1c(=O)n(Cc1nc(C)c3ccccc3n1)c(=O)n2C` [LINAGLIPTIN], for which the concentration at half-maximal activity (AC50) in test [1] was > 10 µM; in test [2], > 30 µM; on Vasopressin V1a receptor it was > 30 µM; in [3], > 10 µM; at Estrogen receptor, > 30 µM; in test [9] it was > 10 µM. Moreover, the half-maximal activity concentration (AC50) is > 10 µM in test [4]; > 10 µM in test [6]; > 30 µM in [7]; > 30 µM in test [8]; > 10 µM on Histamine H3 receptor.

Take `CC(=O)Nc1c(I)c(C(=O)N[C@H]2C(O)O[C@H](CO)[C@@H](O)[C@@H]2O)c(I)c(N(C)C(C)=O)c1I` (some centres not stated) [METRIZAMIDE]: the AC50 (in test [1]; in test [2]; on Vasopressin V1a receptor; in [3]; at D(1A) dopamine receptor; on Estrogen receptor) was > 10 µM each time. Further, the half-maximal activity concentration (AC50) is > 30 µM in test [9]; > 10 µM in test [4]; > 30 µM in test [5]; > 30 µM in [6]; > 10 µM in test [7]; > 10 µM in [8].

Regarding `O=C1CN=C(c2ccccc2)c2cc(Cl)ccc2N1` [NORDAZEPAM], the AC50 is > 10 µM in [1]; > 30 µM in test [2]; > 10 µM at Vasopressin V1a receptor; > 10 µM in test [3]; > 10 µM on D(1A) dopamine receptor; > 30 µM on Estrogen receptor. Further, the concentration at half-maximal activity (AC50) in [9] is > 10 µM; in [4], > 10 µM; in test [6], 12 µM; in [7], > 30 µM; in test [8] it was > 10 µM; on Histamine H3 receptor, > 10 µM.

As for `CC(=O)O[C@H]1C[C@@H]2CC[C@@H]3[C@H](CC[C@@]4(C)[C@H]3C[C@H]([N+]3(C)CCCCC3)[C@@H]4OC(C)=O)[C@@]2(C)C[C@@H]1[N+]1(C)CCCCC1` [PANCURONIUM], the AC50 (in test [1]; in [2]; on Vasopressin V1a receptor; in test [3]; on D(1A) dopamine receptor; on Estrogen receptor) was > 10 µM in each case. Also, the concentration at half-maximal activity (AC50) in [9] is > 10 µM; in test [4] it was > 10 µM; in test [5], 1.26 µM; in [6] it was > 30 µM; in [7], > 10 µM; in test [8] it was > 10 µM.

Regarding `Cc1cc2nc3c(=O)[nH]c(=O)nc-3n(C[C@H](O)[C@H](O)[C@H](O)COP(=O)(O)O)c2cc1C` [RIBOFLAVIN 5'-PHOSPHATE], the AC50 is > 30 µM in test [1]; > 30 µM in test [2]; > 30 µM on Vasopressin V1a receptor; > 30 µM in [3]; > 30 µM at D(1A) dopamine receptor; 3.7 µM at Estrogen receptor. Moreover, the concentration at half-maximal activity (AC50) (in test [9]; in test [6]; in test [7]; in [8]; at Histamine H3 receptor) was > 30 µM throughout.
